The text below walks through data of patent US20240308968A1, “FUNGICIDAL SUBSTITUTED HETEROCYCLES” (FMC Corporation, priority 2021, published 2024).

Common to all, as to assay type: in vivo
For one assay, the system named is Alternaria solani. Description: Test F: preventive spray on tomato seedlings, tomato early blight disease rating. Particulars: 100 = 100% disease control, 0 = no control; for pest or weed control at 50 ppm / pest or weed control at 250 ppm: Alternaria solani, 120 h. The method in brief:
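Preventive test: a day after run-off spraying with acetone/water–PEG400 suspensions (ppm), seedlings received an A. solani spore inoculum. Incubation was 48 h at 27 °C in saturated air followed by 3 days in a 20 °C chamber. Visual scores express percent disease control versus untreated plants (0–100).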

The next assay deals with Phakopsora pachyrhizi. Description: Test D: preventive spray on soybean seedlings, Asian soybean rust disease rating. The note with it: 100 = 100% disease control, 0 = no control; for pest or weed control at 50 ppm / pest or weed control at 250 ppm: Phakopsora pachyrhizi, 216 h. A digest of the protocol:
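Seedlings of soybean were challenged with rust spores one day after a run-off spray of test suspension (acetone/water 50/50, 50–250 ppm PEG400); after 24 h saturated humidity and 8 days growth, both at 22° C, disease was scored visually.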

For a further assay, the system named is Botrytis cinerea. The assay can be described thus: Test E: preventive spray on tomato seedlings, tomato Botrytis disease rating. The note with it: 100 = 100% disease control, 0 = no control; for pest or weed control at 50 ppm / pest or weed control at 250 ppm: Botrytis cinerea, 120 h. A digest of the protocol:
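Preventive test: one day after spraying seedlings to run-off with test suspension (ppm in acetone/water, 50–250 ppm PEG400), B. cinerea spores applied. Incubation 48 h at 20 °C saturated humidity plus 3 days at 24 °C preceded visual rating as percent disease control versus controls.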

Assay [1] relates to Puccinia recondita f. sp. Tritici. The assay can be described thus: Test B: preventive spray on wheat seedlings, wheat leaf rust disease rating. The note with it: 100 = 100% disease control, 0 = no control; for pest or weed control at 50 ppm / pest or weed control at 250 ppm: Puccinia recondita, 192 h. A digest of the protocol: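 Preventive test: one day after spraying wheat seedlings to run-off with ppm suspensions (acetone/water 1:1, 50-250 ppm PEG400), leaf rust spores were applied. Incubation was 24 h at saturation then 7 days at 20° C.; disease scored 0-100% control relative to untreated.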

For assay [2], the system named is Blumeria graminis f. sp. Tritici. The assay can be described thus: Test C: preventive spray on wheat seedlings, wheat powdery mildew disease rating. The note with it: 100 = 100% disease control, 0 = no control; for pest or weed control at 50 ppm / pest or weed control at 250 ppm: Blumeria graminis, 192 h. The method in brief:
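Disease control scored visually after 8 days at 20° C, on a 0–100 scale versus untreated controls. Seedlings had received a preventive run-off spray one day before dusting with powdery mildew spores; compounds were suspended in acetone/water (50/50) containing 50–250 ppm PEG400.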

The next assay concerns Zymoseptoria tritici. Description: Test A: preventive spray on wheat seedlings, wheat leaf blotch disease rating. Particulars: 100 = 100% disease control, 0 = no control; for pest or weed control at 50 ppm / pest or weed control at 250 ppm: Zymoseptoria tritici, 456 h. A digest of the protocol: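 Disease scored after 17 days in a 20 °C growth chamber, following 48 h at 24 °C in saturated air after spore inoculation with Z. tritici. Inoculation came one day after wheat seedlings were sprayed to run-off with test suspension (acetone/water 50/50, 50–250 ppm PEG400).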

As to `COc1cc(OC)cc(-n2c(-c3ccc(F)cc3Cl)c(Cl)c(=O)n(C)c2=O)c1` [Compound 38, 5-chloro-6-(2-chloro-4-fluorophenyl)-1-(3,5-dimethoxyphenyl)-3-methyl-2,4(1H,3H)-pyrimidinedione], the pest or weed control at 50 ppm with Alternaria solani (50 ppm) was 0%; in the assay with Phakopsora pachyrhizi (50 ppm), 0%; in the assay with Botrytis cinerea (50 ppm), 70%; in assay [1] (50 ppm), 96%; in assay [2] (50 ppm), 0%; with Zymoseptoria tritici (50 ppm), 0%.

As for `COc1cc(OC)cc(-n2c(-c3ccc(F)cc3Cl)c(C)c(=O)n(C)c2=O)c1` [Compound 39, 6-(2-chloro-4-fluorophenyl)-1-(3,5-dimethoxyphenyl)-3,5-dimethyl-2,4(1H,3H)-pyrimidinedione], the pest or weed control at 50 ppm in the assay on Alternaria solani (50 ppm) came to 9%; in the assay on Phakopsora pachyrhizi (50 ppm), 73%; in the assay with Botrytis cinerea (50 ppm), 90%; in assay [1] (50 ppm), 100%; in assay [2] (50 ppm), 98%; in the assay on Zymoseptoria tritici (50 ppm) it was 0%.

For the compound `COc1cc(OC)cc(-c2ncncc2-c2c(F)cc(F)cc2F)c1` [Compound 40], the “Test F disease control rating” value in the assay with Alternaria solani (250 ppm) was found to be 0%. Besides, the “Test D disease control rating” value in the assay on Phakopsora pachyrhizi (250 ppm) is recorded as 0%. Also, the “Test E disease control rating” value in the assay with Botrytis cinerea (250 ppm) was 0%. Moreover, the “Test B disease control rating” value in assay [1] (250 ppm) was determined as 9%. The “Test C disease control rating” value in assay [2] (250 ppm) came out at 69%. The “Test A disease control rating” value with Zymoseptoria tritici (250 ppm) amounted to 0%.

As to `COc1cc(OC)cc(-c2nc(C)ncc2-c2c(F)cc(F)cc2F)c1` [Compound 41], the “Test F disease control rating” value in the assay with Alternaria solani (250 ppm) is listed as 0%. The “Test D disease control rating” value with Phakopsora pachyrhizi (250 ppm) is recorded as 0%. Also, the “Test E disease control rating” value in the assay on Botrytis cinerea (250 ppm) was determined as 17%. Further, in assay [1] (250 ppm), the “Test B disease control rating” value is recorded as 0%. In assay [2] (250 ppm), the “Test C disease control rating” value is reported as 91%. Moreover, the “Test A disease control rating” value in the assay with Zymoseptoria tritici (250 ppm) was found to be 84%.

For the compound `COc1cc(OC)c(Cl)c(-c2nc(C)nc(C)c2-c2ccc(F)cc2Cl)c1` [Compound 42, 4-(2-chloro-3,5-dimethoxyphenyl)-5-(2-chloro-4-fluorophenyl)-2,6-dimethylpyrimidine], the pest or weed control at 250 ppm in the assay on Alternaria solani (250 ppm) is 100%; in the assay with Phakopsora pachyrhizi (250 ppm), 100%; with Botrytis cinerea (250 ppm), 99%; in assay [1] (250 ppm), 100%; in assay [2] (250 ppm), 100%; with Zymoseptoria tritici (250 ppm), 96%.

Take `Cc1ncnc(-c2ccc(F)cc2Cl)c1-c1ccc(F)cc1Cl` [Compound 43]: the “Test F disease control rating” value with Alternaria solani (250 ppm) amounted to 0%. In addition, the “Test D disease control rating” value in the assay with Phakopsora pachyrhizi (250 ppm) is on record as 78%. For the same compound, the “Test E disease control rating” value with Botrytis cinerea (250 ppm) is 0%. Also, in assay [1] (250 ppm), the “Test B disease control rating” value is 0%. Also, the “Test C disease control rating” value in assay [2] (250 ppm) is listed as 0%. Further, the “Test A disease control rating” value with Zymoseptoria tritici (250 ppm) came out at 0%.

As to `COc1cc(OC)cc(-c2nc(C)nc(C)c2-c2ccc(F)cc2Cl)c1` [Compound 44, 5-(2-chloro-4-fluorophenyl)-4-(3,5-dimethoxyphenyl)-2,6-dimethylpyrimidine], the pest or weed control at 250 ppm in the assay with Alternaria solani (250 ppm) stood at 98%; in the assay on Phakopsora pachyrhizi (250 ppm) it was 95%; with Botrytis cinerea (250 ppm), 99%; in assay [1] (250 ppm), 100%; in assay [2] (250 ppm) it was 99%; with Zymoseptoria tritici (250 ppm), 99%.

As for `COc1cc(OC)cc(-c2nc(Cl)nc(C)c2-c2ccc(F)cc2Cl)c1` [Compound 47], the “Test F disease control rating” value in the assay on Alternaria solani (250 ppm) is 92%. The “Test D disease control rating” value with Phakopsora pachyrhizi (250 ppm) is reported as 98%. Further, the “Test E disease control rating” value in the assay on Botrytis cinerea (250 ppm) is on record as 93%. Besides, the “Test B disease control rating” value in assay [1] (250 ppm) is 100%. Also, the “Test C disease control rating” value in assay [2] (250 ppm) is 98%. Also, the “Test A disease control rating” value in the assay on Zymoseptoria tritici (250 ppm) came to 100%.

Regarding `COc1cc(OC)c(Cl)c(-c2nc(Cl)nc(C)c2-c2c(F)cccc2F)c1` [Compound 48, 2-chloro-4-(2-chloro-3,5-dimethoxyphenyl)-5-(2,6-difluorophenyl)-6-methylpyrimidine], the pest or weed control at 250 ppm in the assay with Alternaria solani (250 ppm) came to 100%; with Phakopsora pachyrhizi (250 ppm) it was 100%; in the assay with Botrytis cinerea (250 ppm), 99%; in assay [1] (250 ppm), 100%; in assay [2] (250 ppm), 100%; in the assay with Zymoseptoria tritici (250 ppm), 100%.

Regarding `COc1cc(OC)c(Cl)c(-c2nc(Cl)nc(C)c2-c2ccc(F)cc2Cl)c1` [Compound 49, 2-chloro-4-(2-chloro-3,5-dimethoxyphenyl)-5-(2-chloro-4-fluorophenyl)-6-methylpyrimidine], the pest or weed control at 250 ppm was 100% in the assay on Alternaria solani (250 ppm); 100% in the assay on Phakopsora pachyrhizi (250 ppm); 96% with Botrytis cinerea (250 ppm); 100% in assay [1] (250 ppm); 100% in assay [2] (250 ppm); 100% in the assay on Zymoseptoria tritici (250 ppm).

With `COc1ccc(Cl)c(-c2nc(C)nc(C)c2-c2ccc(F)cc2Cl)c1` [Compound 50, 5-(2-chloro-4-fluorophenyl)-4-(2-chloro-5-methoxyphenyl)-2,6-dimethylpyrimidine], the pest or weed control at 250 ppm came out at 100% in the assay with Alternaria solani (250 ppm); 100% with Phakopsora pachyrhizi (250 ppm); 99% with Botrytis cinerea (250 ppm); 100% in assay [1] (250 ppm); 100% in assay [2] (250 ppm); 100% in the assay with Zymoseptoria tritici (250 ppm).

As to `COc1cc(OC)cc(-c2ncnc(OC)c2-c2c(F)cc(F)cc2F)c1` [Compound 51], the “Test F disease control rating” value with Alternaria solani (50 ppm) is 0%. Besides, the “Test D disease control rating” value in the assay on Phakopsora pachyrhizi (50 ppm) turned out to be 8%. In addition, the “Test E disease control rating” value in the assay on Botrytis cinerea (50 ppm) is 30%. In addition, in assay [1] (50 ppm), the “Test B disease control rating” value turned out to be 9%. Besides, the “Test C disease control rating” value in assay [2] (50 ppm) was 0%. Also, in the assay on Zymoseptoria tritici (50 ppm), the “Test A disease control rating” value came to 0%.

On to `COc1cc(OC)cc(-c2nc(C)nc(Cl)c2-c2ccc(F)cc2Cl)c1` [Compound 52], for which the “Test F disease control rating” value in the assay on Alternaria solani (250 ppm) came out at 26%. The “Test D disease control rating” value with Phakopsora pachyrhizi (250 ppm) was 13%. For the same compound, in the assay on Botrytis cinerea (250 ppm), the “Test E disease control rating” value came out at 94%. In addition, the “Test B disease control rating” value in assay [1] (250 ppm) stood at 89%. The “Test C disease control rating” value in assay [2] (250 ppm) is given as 99%. Further, the “Test A disease control rating” value in the assay with Zymoseptoria tritici (250 ppm) turned out to be 100%.

For the compound `COc1cc(OC)cc(-c2nc(C)nc(C)c2-c2c(F)cc(F)cc2F)c1` [Compound 53, 4-(3,5-dimethoxyphenyl)-2,6-dimethyl-5-(2,4,6-trifluorophenyl)pyrimidine], the pest or weed control at 50 ppm came to 97% in the assay with Alternaria solani (50 ppm); 97% in the assay on Phakopsora pachyrhizi (50 ppm); 96% in the assay with Botrytis cinerea (50 ppm); 100% in assay [1] (50 ppm); 100% in assay [2] (50 ppm); 100% in the assay on Zymoseptoria tritici (50 ppm).

Consider `COc1cc(OC)c(Cl)c(-c2nc(C)nc(C)c2-c2c(F)cc(F)cc2F)c1` [Compound 54, 4-(2-chloro-3,5-dimethoxyphenyl)-2,6-dimethyl-5-(2,4,6-trifluorophenyl)pyrimidine], for which the pest or weed control at 50 ppm in the assay on Alternaria solani (50 ppm) was found to be 99%; in the assay on Phakopsora pachyrhizi (50 ppm), 100%; in the assay with Botrytis cinerea (50 ppm) it was 97%; in assay [1] (50 ppm), 100%; in assay [2] (50 ppm) it was 100%; with Zymoseptoria tritici (50 ppm) it was 100%.

Consider `COc1cc(OC)c(Cl)c(-c2nc(C)nc(C)c2-c2c(F)cccc2F)c1` [Compound 55], for which, in the assay with Alternaria solani (50 ppm), the “Test F disease control rating” value is listed as 99%. For the same compound, in the assay on Phakopsora pachyrhizi (50 ppm), the “Test D disease control rating” value was determined as 100%. In addition, the “Test E disease control rating” value in the assay with Botrytis cinerea (50 ppm) is recorded as 99%. Also, in assay [1] (50 ppm), the “Test B disease control rating” value is 100%. Besides, in assay [2] (50 ppm), the “Test C disease control rating” value is reported as 100%. Further, the “Test A disease control rating” value with Zymoseptoria tritici (50 ppm) stood at 100%.

For `CCc1nc(C)nc(-c2cc(OC)cc(OC)c2Cl)c1-c1ccc(F)cc1Cl` [Compound 56, 4-(2-chloro-3,5-dimethoxyphenyl)-5-(2-chloro-4-fluorophenyl)-6-ethyl-2-methylpyrimidine], the pest or weed control at 50 ppm is 91% in the assay with Alternaria solani (50 ppm); 88% in the assay with Phakopsora pachyrhizi (50 ppm); 94% in the assay with Botrytis cinerea (50 ppm); 100% in assay [1] (50 ppm); 100% in assay [2] (50 ppm); 100% with Zymoseptoria tritici (50 ppm).
